We go through 15 compounds from patent US20210315893A1 (Galapagos NV, priority 2017, published 2021).

Structures are written as SMILES. pEC50: −log10 of the molar value. Where only a bound is given, the exact number is not on record here.

Experiment [1] has as its system HFL-1 cells. Briefly: IL8 assay in the presence of Human Serum Albumin. As to conditions: HFL1, read-out: HSA IL8 EC50.
Experiment [2] has as its target T1, human GPCR sphingosine 1-phosphate receptor 2 (Homo sapiens, UniProt O95136).
T1 construct: host or cells: CHO
Description: S1PR2 antagonist Ca2+ flux assay. As to conditions: antagonist mode, CHO-S1PR2 cells, S1P at EC80, Ca2+ fluorescence; read-out: S1P2 EC50 (nM), S1P2 antagonist EC50. The class given is cell-based. A digest of the protocol: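 Antagonist mode: 15 min after compound addition, S1P (EC80) stimulates Fluo8-loaded, 1 h-starved CHO-S1PR2 cells, Ca2+ read over 3 min; a prior 3-min read checks compound agonism. EC50 from peak/baseline fluorescence ratio, normalised versus vehicle and S1P EC50 (antagonist) or EC100 (agonist).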
(In general: A change in cytosolic calcium serves as a functional read-out for many receptors and channels.)

Experiment [3] has as its system HFL-1 cells. Description: IL-8 production assay (S1P induced IL-8). As to conditions: Homo sapiens, HFL1; S1P (1 μM) induced IL-8 in HFL-1 cells, starvation medium without HSA; read-out: IL8 EC50. The class given is cell-based. A digest of the protocol:
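HFL-1 fibroblasts in low-serum medium were pretreated 1 h with a 10-point 1/3 series of compound starting at 30 μM (0.3% DMSO).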

The target of experiment [4] is T2, S1PR2 (Homo sapiens, UniProt O95136).
T2 construct: expressed in transfected cells
T2 sequence (O95136 whole entry): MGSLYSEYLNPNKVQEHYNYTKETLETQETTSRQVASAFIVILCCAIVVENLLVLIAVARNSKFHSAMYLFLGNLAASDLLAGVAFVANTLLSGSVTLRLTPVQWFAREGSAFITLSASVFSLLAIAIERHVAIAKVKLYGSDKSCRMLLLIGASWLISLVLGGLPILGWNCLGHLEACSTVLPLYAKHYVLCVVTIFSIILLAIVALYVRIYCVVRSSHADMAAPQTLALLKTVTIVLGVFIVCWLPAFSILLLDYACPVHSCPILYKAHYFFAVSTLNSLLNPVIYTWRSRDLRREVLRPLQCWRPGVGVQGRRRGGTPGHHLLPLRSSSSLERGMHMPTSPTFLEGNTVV
Description: S1PR2 binding assay (competition with radioactively labeled S1P, SpA). As to conditions: membranes from stable cell line over expressing S1PR2, SpA beads; read-out: S1P2 EC50 (nM), S1PR2 binding EC50. A digest of the protocol:
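Scintillation proximity read-out after 2 h room-temperature incubation of compound, [3H]S1P and S1PR2-overexpressing cell membranes on WGA-coated beads. Buffer: 20 mM Tris pH 7.5, 100 mM NaCl, 10 mM MgCl2, 1 mM Na3VO4, 0.4% fatty-acid-free BSA; plates counted immediately after centrifugation.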

Experiment [5] concerns the target T3, human GPCR sphingosine 1-phosphate receptor 5 (Homo sapiens, UniProt Q9H228).
T3 construct: host or cells: CHO
Briefly: S1PR5 selectivity Ca2+ flux assay (antagonist readout). The class given is cell-based. As to conditions: CHO cells overexpressing human S1PR5 and Gq, agonist at EC80 (20 nM), read-out: S1P5 EC50 (nM), S1P5 antagonist EC50. A digest of the protocol:
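Antagonist readout: after 15 min compound preincubation at 37° C, human S1PR5/Gq CHO cells loaded with Fluo 8 dye received an EC80 challenge of S1PR5-specific agonist, and fluorescence was recorded for 3 min. Maximal-over-background ratios, normalized as % inhibition, gave IC50 by logistic fit.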

Experiment [6] deals with T4, human GPCR sphingosine 1-phosphate receptor 1 (Homo sapiens, UniProt P21453).
T4 construct: host or cells: CHO
T4 sequence (P21453 whole entry): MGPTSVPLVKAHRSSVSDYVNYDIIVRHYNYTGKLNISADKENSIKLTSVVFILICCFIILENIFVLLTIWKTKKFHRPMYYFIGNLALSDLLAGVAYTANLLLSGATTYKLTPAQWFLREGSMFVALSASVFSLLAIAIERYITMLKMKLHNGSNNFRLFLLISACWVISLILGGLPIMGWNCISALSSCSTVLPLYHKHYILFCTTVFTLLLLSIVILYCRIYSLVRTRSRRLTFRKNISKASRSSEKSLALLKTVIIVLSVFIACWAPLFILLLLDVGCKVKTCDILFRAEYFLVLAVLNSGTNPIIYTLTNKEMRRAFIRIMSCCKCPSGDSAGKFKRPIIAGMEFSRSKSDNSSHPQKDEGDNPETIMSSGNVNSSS
Description: S1PR1 selectivity Ca2+ flux assay (antagonist readout). The class given is cell-based. The note with it: antagonist readout, CHO cells overexpressing human S1PR1 and Gq, S1P at EC80 (6 nM); read-out: S1P1 EC50 (nM), S1P1 antagonist EC50. In short, it runs like this: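 Antagonist mode: S1P challenge follows 15 min compound preincubation at 37 °C. Cells are CHO stably expressing human S1PR1, serum-starved 1 h (0.1% FAF BSA), loaded with Fluo 8. Peak-over-baseline fluorescence ratio is normalized to positive/negative controls; IC50 from logistic curve fit.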

T3 sequence (Q9H228 whole entry): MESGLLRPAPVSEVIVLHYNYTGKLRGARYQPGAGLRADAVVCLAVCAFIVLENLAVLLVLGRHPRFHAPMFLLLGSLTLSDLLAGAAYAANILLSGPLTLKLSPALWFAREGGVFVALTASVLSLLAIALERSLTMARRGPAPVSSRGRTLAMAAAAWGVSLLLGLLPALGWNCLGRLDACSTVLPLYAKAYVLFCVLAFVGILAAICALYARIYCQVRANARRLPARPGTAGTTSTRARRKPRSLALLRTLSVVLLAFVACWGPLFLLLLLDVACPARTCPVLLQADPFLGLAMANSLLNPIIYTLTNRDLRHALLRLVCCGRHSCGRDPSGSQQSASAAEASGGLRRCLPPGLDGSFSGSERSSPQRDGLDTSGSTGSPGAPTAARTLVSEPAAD
T1 sequence (O95136 whole entry): as the sequence (O95136 whole entry) above

As usually defined, the pEC50 is −log10 of the EC50, conventionally taken in molar units. What is called EC50 is the concentration giving half of the maximal effect. With `O=C(Cn1cc(Cc2nc3cc(OCC(F)F)c(Cl)cc3[nH]2)c2ccccc2c1=O)N1CCOCC1` [Compound 169, 4-[6-Chloro-5-(2,2-difluoro-ethoxy)-1H-benzoimidazol-2-ylmethyl]-2-(2-morpholin-4-yl-2-oxo-ethyl)-2H-isoquinolin-1-one], the negative logarithm of the EC50 (pEC50) in experiment [1] is 6.40; in experiment [3] it was 7.31. Further, the EC50 in experiment [2] was 19.9 nM; in experiment [4], 375 nM; in experiment [5], 19800 nM; in experiment [6], no less than 19800 nM.

`CCOc1cc2[nH]c(Cc3nn(CC(=O)N4CCOCC4)c(=O)c4ccccc34)nc2cc1C#N` [Compound 170, 6-ethoxy-2-[[3-(2-morpholino-2-oxo-ethyl)-4-oxo-phthalazin-1-yl]methyl]-1H-benzimidazole-5-carbonitrile]: the values for the pEC50 in experiment [1] and in experiment [3] were 6.86 and 7.98, respectively. Moreover, the EC50 in experiment [2] is 42.5 nM; in experiment [4], 112 nM; in experiment [5], 19800 nM; in experiment [6], no less than 19800 nM.

For the compound `CC(F)(F)COc1cc2[nH]c(Cc3nn(CC(=O)N4CCOCC4)c(=O)c4ccccc34)nc2cc1Cl` [Compound 172, 4-[[5-chloro-6-(2,2-difluoropropoxy)-1H-benzimidazol-2-yl]methyl]-2-(2-morpholino-2-oxo-ethyl)phthalazin-1-one], the pEC50 in experiment [1] was 7.48; in experiment [3], 7.54. In addition, the EC50 is 7.57 nM in experiment [2], 15.8 nM in experiment [4], 19800 nM in experiment [5] and no less than 19800 nM in experiment [6].

Turning to `COCCOc1cc2[nH]c(Cc3nn(CC(=O)N4CCOCC4)c(=O)c4ccccc34)nc2cc1Cl` [Compound 174, 4-[[5-chloro-6-(2-methoxyethoxy)-1H-benzimidazol-2-yl]methyl]-2-(2-morpholino-2-oxo-ethyl)phthalazin-1-one], the pEC50 in experiment [1] was 7.23; in experiment [3], 7.70. The EC50 in experiment [2] was 34.9 nM; in experiment [4], 56.8 nM; in experiment [5], 19800 nM; in experiment [6] it was no less than 19800 nM.

Regarding `N#Cc1cc2[nH]c(Cc3nn(CC(=O)N4CCOCC4)c(=O)c4ccccc34)nc2cc1OCC(F)(F)F` [Compound 175, 2-[[3-(2-morpholino-2-oxo-ethyl)-4-oxo-phthalazin-1-yl]methyl]-6-(2,2,2-trifluoroethoxy)-3H-benzimidazole-5-carbonitrile], the pEC50 was 7.21 in experiment [1] and 7.96 in experiment [3]. Also, the EC50 in experiment [2] is 11.4 nM; in experiment [4], 78.9 nM; in experiment [5] it was 19800 nM; in experiment [6], no less than 19800 nM.

As to `CN(C)C1CCN(C(=O)Cn2nc(Cc3nc4cc(OCC(F)F)c(C#N)cc4[nH]3)c3ccccc3c2=O)C1` (stereo not drawn) [Compound 176, 6-(2,2-difluoroethoxy)-2-[[3-[2-[3-(dimethylamino)pyrrolidin-1-yl]-2-oxo-ethyl]-4-oxo-phthalazin-1-yl]methyl]-3H-benzimidazole-5-carbonitrile], the pEC50 is 6.21 in experiment [1] and 6.93 in experiment [3]. Moreover, the EC50 was 489 nM in experiment [2], 386 nM in experiment [4], 19800 nM in experiment [5] and no less than 19800 nM in experiment [6].

For `C[C@@H]1CN(C(=O)Cn2nc(Cc3nc4cc(OCC(F)F)c(C#N)cc4[nH]3)c3ccccc3c2=O)C[C@H](C)O1` [Compound 177, 6-(2,2-difluoroethoxy)-2-[[3-[2-[(2S,6R)-2,6-dimethylmorpholin-4-yl]-2-oxo-ethyl)-4-oxo-phthalazin-1-yl]methyl]-3H-benzimidazole-5-carbonitrile], the pEC50 was 6.92 in experiment [1] and 7.73 in experiment [3]. The 50% effective concentration (EC50) was 57.1 nM in experiment [2], 124 nM in experiment [4], 19800 nM in experiment [5] and no less than 19800 nM in experiment [6].

With `N#Cc1cc2[nH]c(Cc3nn(CC(=O)NC4CCOC4)c(=O)c4ccccc34)nc2cc1OCC(F)F` (stereo not drawn) [Compound 178, 2-[4-[[6-cyano-5-(2,2-difluoroethoxy)-1H-benzimidazol-2-yl]methyl]-1-oxo-phthalazin-2-yl]-N-THF-3-yl-acetamide], the pEC50 was 6.30 in experiment [1] and 6.80 in experiment [3]. The EC50 in experiment [2] was 118 nM; in experiment [4] it was 188 nM; in experiment [5], 19800 nM; in experiment [6] it was no less than 19800 nM.

For `O=C(Cn1nc(Cc2nc3cc(OCC(F)F)c(F)cc3[nH]2)c2c(c1=O)CCCC2)N1CCOCC1` [Compound 179, 4-[[5-(2,2-difluoroethoxy)-6-fluoro-1H-benzimidazol-2-yl]methyl]-2-(2-morpholino-2-oxo-ethyl)-5,6,7,8-tetrahydrophthalazin-1-one], the pEC50 in experiment [1] and in experiment [3] was 6.45 throughout. For the same compound, the EC50 in experiment [2] was 107 nM; in experiment [4], 207 nM; in experiment [5], 19800 nM; in experiment [6], no less than 19800 nM.

`N#Cc1cc2nc(Cc3nn(CC(=O)N4CCC[C@H]4CO)c(=O)c4ccccc34)[nH]c2cc1OCC(F)F` [Compound 198, 6-(2,2-difluoroethoxy)-2-[[3-[2-[(2S)-2-(hydroxymethyl)pyrrolidin-1-yl]-2-oxo-ethyl]-4-oxo-phthalazin-1-yl]methyl]-1H-benzimidazole-5-carbonitrile]: the pEC50 in experiment [1] is 6.68; in experiment [3], 7.13. Moreover, the EC50 in experiment [2] is 416 nM; in experiment [4], 486 nM; in experiment [5] it was 19800 nM; in experiment [6], no less than 19800 nM.

For the compound `CC1(O)CCN(C(=O)Cn2nc(Cc3nc4cc(OCC(F)F)c(C#N)cc4[nH]3)c3ccccc3c2=O)C1` (stereo not drawn) [Compound 201, 6-(2,2-difluoroethoxy)-2-[[3-[2-(3-hydroxy-3-methyl-pyrrolidin-1-yl)-2-oxo-ethyl]-4-oxo-phthalazin-1-yl]methyl]-3H-benzimidazole-5-carbonitrile], the pEC50 in experiment [1] was 6.82; in experiment [3], 7.20. The EC50 stood at 44.8 nM in experiment [2], 138 nM in experiment [4], 19800 nM in experiment [5] and 13200 nM in experiment [6].

In the case of `CN(C)C1CCN(C(=O)Cn2nc(Cc3nc4cc(C#N)c(OCC(F)F)cc4[nH]3)c3c(c2=O)CCCC3)C1` (stereo not drawn) [Compound 204, 6-(2,2-difluoroethoxy)-2-[[3-[2-[3-(dimethylamino)pyrrolidin-1-yl]-2-oxo-ethyl]-4-oxo-5,6,7,8-tetrahydrophthalazin-1-yl]methyl]-1H-benzimidazole-5-carbonitrile], the pEC50 is 6.26 in experiment [1] and 6.92 in experiment [3]. The EC50 in experiment [2] is 117 nM; in experiment [4] it was 296 nM; in experiment [5], 19800 nM; in experiment [6], no less than 19800 nM.

For the compound `N#Cc1cc2nn(Cc3nn(CC(=O)NC4CCCC4)c(=O)c4ccccc34)cc2cc1OCC(F)F` [Compound 208, 2-[4-[[6-cyano-5-(2,2-difluoroethoxy)indazol-2-yl)methyl]-1-oxo-phthalazin-2-yl]-N-cyclopentyl-acetamide], the pEC50 in experiment [1] is 5.48; in experiment [3], 5.00. The EC50 in experiment [2] was 10800 nM; in experiment [4], 1510 nM; in experiment [5], 19800 nM; in experiment [6] it was no less than 19800 nM.

`N#Cc1cc2nn(Cc3nn(CC(=O)N4CCOCC4)c(=O)c4ccccc34)cc2cc1OCC1CC1` [Compound 209]: the pEC50 in experiment [1] is 6.42; in experiment [3], 6.91. Besides, the EC50 was 194 nM in experiment [2], 235 nM in experiment [4], 19800 nM in experiment [5] and no less than 19800 nM in experiment [6].

Consider `N#Cc1cc2[nH]c(Cc3nn(CC(=O)N4C[C@H](O)[C@@H](O)C4)c(=O)c4ccccc34)nc2cc1OCC(F)F` [Compound 211, 6-(2,2-difluoroethoxy)-2-[[3-[2-[(3S,4S)-3,4-dihydroxypyrrolidin-1-yl]-2-oxo-ethyl]-4-oxo-phthalazin-1-yl]methyl]-3H-benzimidazole-5-carbonitrile], for which the pEC50 was 6.80 in experiment [1] and 7.33 in experiment [3]. Moreover, the EC50 was 39.7 nM in experiment [2], 142 nM in experiment [4], 19800 nM in experiment [5] and no less than 19800 nM in experiment [6].
